The text below walks through data of US20210403420A1, “BENZOATE COMPOUND” (SCOHIA PHARMA, INC., priority 2018, published 2021).

Where a name gives a salt, the structure may show the parent alone.

The subject of assay [1] is Diet-induced obesity (DIO) mice. Put plainly: Anti-obesity effect test using DIO mouse. The class given is in vivo. The conditions noted are these: for Body weight (g) At start of administration: average at start of administration; for Body weight (g) After 7-day administration: average; for Fecal protein concentration-increasing rate (%): feces of eighth day, vehicle = 100. As to the method: Test Example 3: Anti-Obesity Effect Test Using DIO Mouse
(§1) Diet-induced obesity (DIO) mice (D12451 diet, male, 26-week old) were orally administered with a 0.5% methyl cellulose suspension containing a test compound (30 mg/kg) (compound administration group, five mice per group) or a 0.5% methyl cellulose suspension (compound non-administration group (vehicle), five mice per group) once a day for seven days, and whole feces were collected on the eighth day of administration. Dried feces were dissolved in 0.5 N NaOH, followed by centrifugation at 12,000 rpm. The protein concentration in the supernatant was then quantitatively measured (Lowry method), and the amount of protein contained in 1 g of feces was calculated as the fecal protein concentration (mg/g feces). The fecal protein concentration-increasing rate was calculated by the following expression.
Fecal protein concentration-increasing rate (%)=Fecal protein concentration of compound administration group/Fecal protein concentration of vehicle group X 100
The fecal protein concentration-increasing rate and the averages of the body weights at the start of administration and after administration for seven days are shown in Table 6.
Also, DIO mice (D12451 diet, male, 59-week old) were orally administered with a 0.5% methyl cellulose suspension containing a test compound (20 mg/kg) (compound administration group, five mice per group) or a 0.5% methyl cellulose suspension (compound non-administration group (vehicle), five mice per group) once a day for seven days, and whole feces were collected on the eighth day of administration. The fecal protein concentration (mg/g feces) was calculated by the method described above. The fecal protein concentration-increasing rate and the averages of the body weights at the start of administration and after administration for seven days are shown in Table 7.

The target in assay [2] is T1, Human recombinant enteropeptidase (Homo sapiens, UniProt P98073).
T1 construct: purchased ITSI-Biosciences LLC #REN-260
T1 sequence (P98073 whole entry): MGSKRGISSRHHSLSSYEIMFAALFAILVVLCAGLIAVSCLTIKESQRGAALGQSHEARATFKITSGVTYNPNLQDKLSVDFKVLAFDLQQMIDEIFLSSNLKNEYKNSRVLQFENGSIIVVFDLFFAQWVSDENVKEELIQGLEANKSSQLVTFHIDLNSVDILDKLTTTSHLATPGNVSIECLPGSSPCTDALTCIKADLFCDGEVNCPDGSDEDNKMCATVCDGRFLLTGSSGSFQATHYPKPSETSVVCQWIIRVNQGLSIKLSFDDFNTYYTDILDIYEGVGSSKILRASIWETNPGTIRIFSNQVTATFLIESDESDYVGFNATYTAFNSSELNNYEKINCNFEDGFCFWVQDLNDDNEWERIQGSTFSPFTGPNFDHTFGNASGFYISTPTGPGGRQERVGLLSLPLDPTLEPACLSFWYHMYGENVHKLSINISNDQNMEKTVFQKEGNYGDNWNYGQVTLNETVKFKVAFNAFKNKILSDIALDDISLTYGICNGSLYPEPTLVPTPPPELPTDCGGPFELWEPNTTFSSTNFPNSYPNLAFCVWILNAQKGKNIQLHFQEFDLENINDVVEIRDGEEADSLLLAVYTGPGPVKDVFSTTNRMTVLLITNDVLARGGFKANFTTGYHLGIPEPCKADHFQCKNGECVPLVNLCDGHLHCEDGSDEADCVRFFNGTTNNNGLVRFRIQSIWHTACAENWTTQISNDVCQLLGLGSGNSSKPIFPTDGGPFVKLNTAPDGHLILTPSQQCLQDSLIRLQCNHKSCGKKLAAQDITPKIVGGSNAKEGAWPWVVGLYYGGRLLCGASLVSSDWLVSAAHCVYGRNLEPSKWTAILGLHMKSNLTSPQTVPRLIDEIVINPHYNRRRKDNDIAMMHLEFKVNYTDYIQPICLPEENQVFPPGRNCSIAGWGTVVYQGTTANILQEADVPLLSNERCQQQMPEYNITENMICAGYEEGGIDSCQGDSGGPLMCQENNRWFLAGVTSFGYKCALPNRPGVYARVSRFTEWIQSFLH
The assay can be described thus: Human enteropeptidase inhibitory activity. In kind it is biochemical. To be noted: 1 μM test compound; fluorescence intensity at 2 hours after start of reaction; read-out: Inhibition rate at 1 μM. On the procedure:
Test Example 1: Human Enteropeptidase Inhibitory Activity
Human recombinant enteropeptidase (#REN-260, ITSI-Biosciences LLC) was diluted with an assay buffer (50 mM Tricine, pH 8.0, 0.01 (w/v) %, Tween 20, 10 mM CaCl2)) to prepare a 24 mU/mL enzyme solution. Subsequently, 5FAM-Abu-Gly-Asp-Asp-Asp-Lys-Ile-Val-Gly-Gly-Lys(CPQ2)-Lys-Lys-NH2 (CPC Scientific Inc.) was diluted with the assay buffer to prepare a 2.1 μM substrate solution. A test compound is dissolved in DMSO into a 10 mM solution, and the solution was diluted with the assay buffer to give a compound solution. To a 384-well black plate (#784076, Greiner Bio-One), 5 μL of the compound solution and 5 μL of the substrate solution were added and mixed, and 5 μL of the enzyme solution was then added to the mixture, followed by mixing to start the reaction. The fluorescence intensity was measured with a fluorescence plate reader EnVision (The Perkin-Elmer Corp.) at an excitation wavelength of 485 nm and a fluorescence wavelength of 535 nm. The same reaction as above was performed without the addition of the test compound (test compound non-addition group). Furthermore, the same reaction as above was performed without the addition of the test compound and the enzyme (control group). The inhibition rate was calculated using the fluorescence intensity at 2 hours after the start of the reaction by the following expression:
Inhibition rate (%)=(1−((fluorescence intensity of test compound addition group)−(fluorescence intensity of control group))/((fluorescence intensity of test compound non-addition group)−(fluorescence intensity of control group)))×100

The test system of the next assay is High fat diet-fed mice. Put plainly: Fecal protein concentration-increasing test using high fat diet-fed mouse. The class given is in vivo. To be noted: feces of first day of administration.
Excerpt: Test Example 2: Fecal Protein Concentration-Increasing Test Using High Fat Diet-Fed Mouse
as §1, with “High fat diet-fed” for “Diet-induced obesity (DIO)”, “10- to 50-week” for “26-week”, “compound” for “compound (30 mg/kg)”, “(vehicle group),” for “(vehicle),”, “group),” for “group) once a day for seven days,”, “first” for “eighth”
Fecal protein concentration-increasing rate (%)=Fecal protein concentration of compound administration group/Fecal protein concentration of vehicle group×100

Setting [3] is: DIO mice 26-week old, 30 mg/kg oral once a day for seven days.
Setting [4] is: Mus musculus, po, 24 h, 30 mg/kg oral, vehicle group = 100, read-out: Fecal protein concentration-increasing rate.
[5] abbreviates: DIO mice 59-week old, 20 mg/kg oral once a day for seven days.

Take `N=C(N)Nc1ccc(C(=O)Oc2cc(OCCOCCOc3cc(OC(=O)c4ccc(NC(=N)N)cc4)cc(C(=O)N[C@@H](CC(=O)O)C(=O)O)c3)cc(C(=O)N[C@@H](CC(=O)O)C(=O)O)c2)cc1` [Example 17, (2S)-2-[[3-[2-[2-[3-[[(1S)-1,2-Dicarboxyethyl]carbamoyl]-5-(4-guanidinobenzoyl)oxyphenoxy]ethoxy]ethoxy]-5-(4-guanidinobenzoyl)oxybenzoyl]amino]butanedioic acid dihydrochloride]: the “Body weight (g) At start of administration” value in assay [1] (DIO mice 26-week old, 30 mg/kg group) stood at 45.6 g. In addition, in assay [1] (setting [3]), the “Body weight (g) After 7-day administration” value is 44.3 g and the “Fecal protein concentration-increasing rate (%)” value is recorded as 252%.
On to `N=C(N)Nc1ccc(C(=O)Oc2ccc(CCC(=O)N[C@H](CC(=O)O)C(=O)O)c(OCCOCCOCCOc3cc(OC(=O)c4ccc(NC(=N)N)cc4)ccc3CCC(=O)N[C@H](CC(=O)O)C(=O)O)c2)cc1` [Example 14, (2R)-2-[3-[2-[2-[2-[2-[2-[3-[[(1R)-1,2-Dicarboxyethyl]amino]-3-oxopropyl]-5-(4-guanidinobenzoyl)oxyphenoxy]ethoxy]ethoxy]ethoxy]-4-(4-guanidinobenzoyl)oxyphenyl]propanoylamino]butanedioic acid], for which, in assay [2], the inhibition at 1 µM was found to be 100%. Further, the response vs control in vivo at 30 mg/kg in the assay on High fat diet-fed mice (setting [4]) is 171%.
On to `N=C(N)Nc1ccc(C(=O)Oc2cc(OCCOCCOCCOc3cc(OC(=O)c4ccc(NC(=N)N)cc4)cc(C(=O)N[C@H](CC(=O)O)C(=O)O)c3)cc(C(=O)N[C@H](CC(=O)O)C(=O)O)c2)cc1` [Example 6, (2R)-2-[[3-[2-[2-[2-[3-[[(1R)-1,2-Dicarboxyethyl]carbamoyl]-5-(4-guanidinobenzoyl)oxyphenoxy]ethoxy]ethoxy]ethoxy]-5-(4-guanidinobenzoyl)oxybenzoyl]amino]butanedioic acid ditrifluoroacetate], for which the inhibition at 1 µM in assay [2] was 100%. Also, the response vs control in vivo at 30 mg/kg in the assay with High fat diet-fed mice (setting [4]) came to 203%.
Taken in the same sequence, the figures for `N=C(N)Nc1ccc(C(=O)Oc2cc(OCCOCCOCCOc3cc(OC(=O)c4ccc(NC(=N)N)cc4)cc(C(=O)N(CC(=O)O)CC(=O)O)c3)cc(C(=O)N(CC(=O)O)CC(=O)O)c2)cc1` [Example 5, 2-[[3-[2-[2-[2-[3-[Bis(carboxymethyl)carbamoyl]-5-(4-guanidinobenzoyl)oxyphenoxy]ethoxy]ethoxy]ethoxy]-5-(4-guanidinobenzoyl)oxybenzoyl]-(carboxymethyl)amino]acetic acid ditrifluoroacetate] were 99% and 158%.
The corresponding values for `N=C(N)Nc1ccc(C(=O)Oc2ccc(OCCOCCOc3ccc(OC(=O)c4ccc(NC(=N)N)cc4)cc3C(=O)N[C@H](CC(=O)O)C(=O)O)c(C(=O)N[C@H](CC(=O)O)C(=O)O)c2)cc1` [Example 19, (2R)-2-[[2-[2-[2-[2-[[(1R)-1,2-Dicarboxyethyl]carbamoyl]-4-(4-guanidinobenzoyl)oxyphenoxy]ethoxy]ethoxy]-5-(4-guanidinobenzoyl)oxybenzoyl]amino]butanedioic acid] are 100% and 215%.
Consider `N=C(N)c1ccc(OC(=O)c2cc(OCCOCCOCCOc3cc(C(=O)N[C@@H](CC(=O)O)C(=O)O)cc(C(=O)Oc4ccc(C(=N)N)cc4)c3)cc(C(=O)N[C@@H](CC(=O)O)C(=O)O)c2)cc1` [Example 7, (2S)-2-[[3-(4-Carbamimidoylphenoxy)carbonyl-5-[2-[2-[2-[3-(4-carbamimidoylphenoxy)carbonyl-5-[[(1S)-1,2-dicarboxyethyl]carbamoyl]phenoxy]ethoxy]ethoxy]ethoxy]benzoyl]amino]butanedioic acid ditrifluoroacetate], for which the inhibition at 1 µM in assay [2] was determined as 100%. For the same molecule, in the assay on High fat diet-fed mice (setting [4]), the response vs control in vivo at 30 mg/kg was 115%.
The corresponding values for `N=C(N)Nc1ccc(C(=O)Oc2cc(OCCOCCOCCOc3cc(OC(=O)c4ccc(NC(=N)N)cc4)cc(C(=O)N[C@@H](CC(=O)O)C(=O)O)c3)cc(C(=O)N[C@@H](CC(=O)O)C(=O)O)c2)cc1` [Example 1, (2S)-2-[[3-[2-[2-[2-[3-[[(1S)-1,2-Dicarboxyethyl]carbamoyl]-5-(4-guanidinobenzoyl)oxyphenoxy]ethoxy]ethoxy]ethoxy]-5-(4-guanidinobenzoyl)oxybenzoyl]amino]butanedioic acid ditrifluoroacetate] are 98% and 159%.
With `N=C(N)Nc1ccc(C(=O)Oc2ccc(C(=O)N[C@H](CC(=O)O)C(=O)O)c(OCCOc3cc(OC(=O)c4ccc(NC(=N)N)cc4)ccc3C(=O)N[C@H](CC(=O)O)C(=O)O)c2)cc1` [Example 22, (2R)-2-[[2-[2-[2-[[(1R)-1,2-Dicarboxyethyl]carbamoyl]-5-(4-guanidinobenzoyl)oxyphenoxy]ethoxy]-4-(4-guanidinobenzoyl)oxybenzoyl]amino]butanedioic acid dihydrochloride], the “Body weight (g) At start of administration” value in assay [1] (DIO mice 59-week old, 20 mg/kg group) is given as 56.5 g. Further, in assay [1] (setting [5]), the “Body weight (g) After 7-day administration” value worked out at 55.1 g and the “Fecal protein concentration-increasing rate (%)” value was 221%.
For the molecule `N=C(N)Nc1ccc(C(=O)Oc2cc(OCCOCCOCCOc3cc(OC(=O)c4ccc(NC(=N)N)cc4)cc(C(=O)N[C@H](CCCCN)C(=O)O)c3)cc(C(=O)N[C@H](CCCCN)C(=O)O)c2)cc1` [Example 11, (2R)-6-Amino-2-[[3-[2-[2-[2-[3-[[(1R)-5-amino-1-carboxypentyl]carbamoyl]-5-(4-guanidinobenzoyl)oxyphenoxy]ethoxy]ethoxy]ethoxy]-5-(4-guanidinobenzoyl)oxybenzoyl]amino]hexanoic acid], the inhibition at 1 µM in assay [2] is 60%. Also, the response vs control in vivo at 30 mg/kg with High fat diet-fed mice (setting [4]) was 171%.
As to `N=C(N)Nc1ccc(C(=O)Oc2cc(OCCOCCOc3cc(OC(=O)c4ccc(NC(=N)N)cc4)cc(C(=O)NCCS(=O)(=O)O)c3)cc(C(=O)NCCS(=O)(=O)O)c2)cc1` [Example 20, 2-[[3-(4-Guanidinobenzoyl)oxy-5-[2-[2-[3-(4-guanidinobenzoyl)oxy-5-(2-sulfoethylcarbamoyl)phenoxy]ethoxy]ethoxy]benzoyl]amino]ethanesulfonic acid ditrifluoroacetate], the inhibition at 1 µM in assay [2] stood at 99%. For the same molecule, the response vs control in vivo at 10 mg/kg in the assay with High fat diet-fed mice (Mus musculus, po, 24 h, 10 mg/kg oral, vehicle group = 100, read-out: Fecal protein concentration-increasing rate) is 143%.
As to `N=C(N)Nc1ccc(C(=O)Oc2ccc(CCC(=O)N[C@@H](CC(=O)O)C(=O)O)c(OCCOCCOCCOc3cc(OC(=O)c4ccc(NC(=N)N)cc4)ccc3CCC(=O)N[C@@H](CC(=O)O)C(=O)O)c2)cc1` [Example 4, (2S)-2-[3-[2-[2-[2-[2-[2-[3-[[(1S)-1,2-Dicarboxyethyl]amino]-3-oxopropyl]-5-(4-guanidinobenzoyl)oxyphenoxy]ethoxy]ethoxy]ethoxy]-4-(4-guanidinobenzoyl)oxyphenyl]propanoylamino]butanedioic acid ditrifluoroacetate], the “Fecal protein concentration-increasing rate” value with High fat diet-fed mice (30 mg/kg oral, vehicle group = 100, ditrifluoroacetate) was found to be 181%.

One may read the inhibition as the change of the read-out against control, counted positive when it falls.
